{"source": "ChEMBL document CHEMBL3046788", "about": "“Synthesis and antifungal activity of N-(substituted pyridinyl)-1-methyl(phenyl)-3-(trifluoromethyl)-1H-pyrazole-4-carboxamide derivatives” (Molecules, 2012)", "key": {"[1]": {"system": "Fusarium oxysporum", "assay": "Antifungal activity against Fusarium oxysporum assessed as inhibition of mycelium growth at 100 ug/ml", "format": "functional", "settings": "read-out: GI"}, "[2]": {"system": "Fusarium graminearum", "assay": "microbe, parasite or virus in culture", "format": "functional", "settings": "read-out: GI"}, "[3]": {"system": "Cytospora", "assay": "Antifungal activity against Cytospora mandshurica assessed as inhibition of mycelium growth at 100 ug/ml", "format": "functional", "settings": "read-out: GI"}, "[4]": {"system": "Cytospora", "assay": "Antifungal activity against Cytospora mandshurica assessed as inhibition of mycelium growth", "format": "functional, organism-based"}, "[5]": {"system": "Fusarium graminearum", "assay": "Antifungal activity against Fusarium graminearum assessed as inhibition of mycelium growth", "format": "functional, organism-based"}, "[6]": {"system": "Fusarium oxysporum", "assay": "Antifungal activity against Fusarium oxysporum assessed as inhibition of mycelium growth", "format": "functional, organism-based"}}}
{"compound": "Cn1cc(C(=O)Nc2ccc(C(F)(F)F)cn2)c(C(F)(F)F)n1", "values": [{"measurement": "inhibition of growth at 100 µg/mL", "setting": "[1]", "value": 39.1, "unit": "%"}, {"measurement": "inhibition of growth at 100 µg/mL", "setting": "[2]", "value": 51.6, "unit": "%"}, {"measurement": "inhibition of growth at 100 µg/mL", "setting": "[3]", "value": 35.6, "unit": "%"}]}
{"compound": "Cn1cc(C(=O)Nc2ccc(Br)cn2)c(C(F)(F)F)n1", "values": [{"measurement": "inhibition of growth at 100 µg/mL", "setting": "[1]", "value": 53.5, "unit": "%"}, {"measurement": "EC50", "setting": "[4]", "value": 132, "unit": "µg/mL"}, {"measurement": "inhibition of growth at 100 µg/mL", "setting": "[2]", "value": 73.2, "unit": "%"}, {"measurement": "EC50", "setting": "[5]", "value": 76.3, "unit": "µg/mL"}, {"measurement": "EC50", "setting": "[6]", "value": 97.8, "unit": "µg/mL"}, {"measurement": "inhibition of growth at 100 µg/mL", "setting": "[3]", "value": 48.7, "unit": "%"}]}
{"compound": "Cn1cc(C(=O)Nc2ccnc(Cl)c2)c(C(F)(F)F)n1", "values": [{"measurement": "inhibition of growth at 100 µg/mL", "setting": "[1]", "value": 5.9, "unit": "%"}, {"measurement": "inhibition of growth at 100 µg/mL", "setting": "[2]", "value": 60.1, "unit": "%"}, {"measurement": "inhibition of growth at 100 µg/mL", "setting": "[3]", "value": 9.1, "unit": "%"}]}
{"compound": "Cc1cccc(NC(=O)c2cn(C)nc2C(F)(F)F)n1", "values": [{"measurement": "inhibition of growth at 100 µg/mL", "setting": "[1]", "value": 22.3, "unit": "%"}, {"measurement": "inhibition of growth at 100 µg/mL", "setting": "[2]", "value": 34.7, "unit": "%"}, {"measurement": "inhibition of growth at 100 µg/mL", "setting": "[3]", "value": 20.8, "unit": "%"}]}
{"compound": "Cn1cc(C(=O)Nc2ccccn2)c(C(F)(F)F)n1", "values": [{"measurement": "inhibition of growth at 100 µg/mL", "setting": "[1]", "value": 19.5, "unit": "%"}, {"measurement": "inhibition of growth at 100 µg/mL", "setting": "[2]", "value": 40.9, "unit": "%"}, {"measurement": "inhibition of growth at 100 µg/mL", "setting": "[3]", "value": 9, "unit": "%"}]}
{"compound": "Cn1cc(C(=O)Nc2ccncc2)c(C(F)(F)F)n1", "values": [{"measurement": "inhibition of growth at 100 µg/mL", "setting": "[1]", "value": 11.8, "unit": "%"}, {"measurement": "inhibition of growth at 100 µg/mL", "setting": "[2]", "value": 26.3, "unit": "%"}, {"measurement": "inhibition of growth at 100 µg/mL", "setting": "[3]", "value": 2.9, "unit": "%"}]}
{"compound": "Cc1ccnc(NC(=O)c2cn(C)nc2C(F)(F)F)c1", "values": [{"measurement": "inhibition of growth at 100 µg/mL", "setting": "[1]", "value": 6.9, "unit": "%"}, {"measurement": "inhibition of growth at 100 µg/mL", "setting": "[2]", "value": 25.2, "unit": "%"}, {"measurement": "inhibition of growth at 100 µg/mL", "setting": "[3]", "value": 1.74, "unit": "%"}]}
{"compound": "Cn1cc(C(=O)Nc2ccc(F)cn2)c(C(F)(F)F)n1", "values": [{"measurement": "inhibition of growth at 100 µg/mL", "setting": "[1]", "value": 22.5, "unit": "%"}, {"measurement": "inhibition of growth at 100 µg/mL", "setting": "[2]", "value": 30.4, "unit": "%"}, {"measurement": "inhibition of growth at 100 µg/mL", "setting": "[3]", "value": 13.6, "unit": "%"}]}
{"compound": "Cn1cc(C(=O)Nc2cccnc2Cl)c(C(F)(F)F)n1", "values": [{"measurement": "inhibition of growth at 100 µg/mL", "setting": "[1]", "value": 14.9, "unit": "%"}, {"measurement": "inhibition of growth at 100 µg/mL", "setting": "[2]", "value": 40.4, "unit": "%"}, {"measurement": "inhibition of growth at 100 µg/mL", "setting": "[3]", "value": 4.9, "unit": "%"}]}
{"compound": "Cc1ccc(NC(=O)c2cn(C)nc2C(F)(F)F)nc1", "values": [{"measurement": "inhibition of growth at 100 µg/mL", "setting": "[1]", "value": 8.3, "unit": "%"}, {"measurement": "inhibition of growth at 100 µg/mL", "setting": "[2]", "value": 39.3, "unit": "%"}, {"measurement": "inhibition of growth at 100 µg/mL", "setting": "[3]", "value": 0, "unit": "%"}]}
{"compound": "Cn1cc(C(=O)Nc2ccc(Cl)cn2)c(C(F)(F)F)n1", "values": [{"measurement": "inhibition of growth at 100 µg/mL", "setting": "[1]", "value": 30.1, "unit": "%"}, {"measurement": "inhibition of growth at 100 µg/mL", "setting": "[2]", "value": 26, "unit": "%"}, {"measurement": "inhibition of growth at 100 µg/mL", "setting": "[3]", "value": 13.6, "unit": "%"}]}
{"compound": "Cn1cc(C(=O)Nc2ccnc(Br)c2)c(C(F)(F)F)n1", "values": [{"measurement": "inhibition of growth at 100 µg/mL", "setting": "[1]", "value": 10.9, "unit": "%"}, {"measurement": "inhibition of growth at 100 µg/mL", "setting": "[2]", "value": 25.2, "unit": "%"}, {"measurement": "inhibition of growth at 100 µg/mL", "setting": "[3]", "value": 6.4, "unit": "%"}]}
{"compound": "O=C(Nc1ccncc1)c1cn(-c2ccccc2)nc1C(F)(F)F", "values": [{"measurement": "inhibition of growth at 100 µg/mL", "setting": "[1]", "value": 7.9, "unit": "%"}, {"measurement": "inhibition of growth at 100 µg/mL", "setting": "[2]", "value": 11.3, "unit": "%"}, {"measurement": "inhibition of growth at 100 µg/mL", "setting": "[3]", "value": 0, "unit": "%"}]}
{"compound": "O=C(Nc1ccnc(Cl)c1)c1cn(-c2ccccc2)nc1C(F)(F)F", "values": [{"measurement": "inhibition of growth at 100 µg/mL", "setting": "[1]", "value": 0, "unit": "%"}, {"measurement": "inhibition of growth at 100 µg/mL", "setting": "[2]", "value": 16.2, "unit": "%"}, {"measurement": "inhibition of growth at 100 µg/mL", "setting": "[3]", "value": 0, "unit": "%"}]}
{"compound": "O=C(Nc1ccnc(Br)c1)c1cn(-c2ccccc2)nc1C(F)(F)F", "values": [{"measurement": "inhibition of growth at 100 µg/mL", "setting": "[1]", "value": 5.7, "unit": "%"}, {"measurement": "inhibition of growth at 100 µg/mL", "setting": "[2]", "value": 10.7, "unit": "%"}, {"measurement": "inhibition of growth at 100 µg/mL", "setting": "[3]", "value": 0, "unit": "%"}]}
{"compound": "O=C(Nc1ccccn1)c1cn(-c2ccccc2)nc1C(F)(F)F", "values": [{"measurement": "inhibition of growth at 100 µg/mL", "setting": "[1]", "value": 23.9, "unit": "%"}, {"measurement": "inhibition of growth at 100 µg/mL", "setting": "[2]", "value": 35.2, "unit": "%"}, {"measurement": "inhibition of growth at 100 µg/mL", "setting": "[3]", "value": 17, "unit": "%"}]}
{"compound": "O=C(Nc1ccncc1Br)c1cn(-c2ccccc2)nc1C(F)(F)F", "values": [{"measurement": "inhibition of growth at 100 µg/mL", "setting": "[1]", "value": 27.2, "unit": "%"}, {"measurement": "inhibition of growth at 100 µg/mL", "setting": "[2]", "value": 22.6, "unit": "%"}, {"measurement": "inhibition of growth at 100 µg/mL", "setting": "[3]", "value": 8.4, "unit": "%"}]}
{"compound": "Cc1cnccc1NC(=O)c1cn(-c2ccccc2)nc1C(F)(F)F", "values": [{"measurement": "inhibition of growth at 100 µg/mL", "setting": "[1]", "value": 11.5, "unit": "%"}, {"measurement": "inhibition of growth at 100 µg/mL", "setting": "[2]", "value": 6.7, "unit": "%"}, {"measurement": "inhibition of growth at 100 µg/mL", "setting": "[3]", "value": 6.1, "unit": "%"}]}
{"compound": "Cc1cc(NC(=O)c2cn(-c3ccccc3)nc2C(F)(F)F)ccn1", "values": [{"measurement": "inhibition of growth at 100 µg/mL", "setting": "[1]", "value": 4.23, "unit": "%"}, {"measurement": "inhibition of growth at 100 µg/mL", "setting": "[2]", "value": 9.8, "unit": "%"}, {"measurement": "inhibition of growth at 100 µg/mL", "setting": "[3]", "value": 0, "unit": "%"}]}
{"compound": "O=C(Nc1cccnc1)c1cn(-c2ccccc2)nc1C(F)(F)F", "values": [{"measurement": "inhibition of growth at 100 µg/mL", "setting": "[1]", "value": 10.6, "unit": "%"}, {"measurement": "inhibition of growth at 100 µg/mL", "setting": "[2]", "value": 6.1, "unit": "%"}, {"measurement": "inhibition of growth at 100 µg/mL", "setting": "[3]", "value": 0, "unit": "%"}]}
{"compound": "O=C(Nc1ccc(Cl)cn1)c1cn(-c2ccccc2)nc1C(F)(F)F", "values": [{"measurement": "inhibition of growth at 100 µg/mL", "setting": "[1]", "value": 14.2, "unit": "%"}, {"measurement": "inhibition of growth at 100 µg/mL", "setting": "[2]", "value": 16.5, "unit": "%"}, {"measurement": "inhibition of growth at 100 µg/mL", "setting": "[3]", "value": 10.1, "unit": "%"}]}
{"compound": "Cc1ccc(NC(=O)c2cn(-c3ccccc3)nc2C(F)(F)F)nc1", "values": [{"measurement": "inhibition of growth at 100 µg/mL", "setting": "[1]", "value": 20.5, "unit": "%"}, {"measurement": "inhibition of growth at 100 µg/mL", "setting": "[2]", "value": 6.4, "unit": "%"}, {"measurement": "inhibition of growth at 100 µg/mL", "setting": "[3]", "value": 0, "unit": "%"}]}
{"compound": "O=C(Nc1ccccc1-c1ccc(Cl)cc1)c1cccnc1Cl", "note": "[BOSCALID]", "values": [{"measurement": "inhibition of growth at 100 µg/mL", "setting": "[1]", "value": 4.3, "unit": "%"}, {"measurement": "inhibition of growth at 100 µg/mL", "setting": "[2]", "value": 35.9, "unit": "%"}, {"measurement": "inhibition of growth at 100 µg/mL", "setting": "[3]", "value": 3.4, "unit": "%"}]}
{"compound": "CC1=C(C(=O)Nc2ccccc2)SCCO1", "note": "[CARBOXIN]", "values": [{"measurement": "inhibition of growth at 100 µg/mL", "setting": "[1]", "value": 23.6, "unit": "%"}, {"measurement": "inhibition of growth at 100 µg/mL", "setting": "[2]", "value": 56.3, "unit": "%"}]}
